# Like-named read-outs stand apart in the source and are kept apart here.
# Key:
# Assay in all cases: ActivX kinase probe assay (human PBMC)
# Assay type in all cases: binding
# PITSLRE = test system: PITSLRE
# PIK3CD = PIK3CD (Homo sapiens (Human), UniProt O00329); details: PIK3CD, read-out: percent inhibition
# TBK1 = TBK1 (Homo sapiens (Human), UniProt Q9UHD2); details: TBK1, read-out: percent inhibition
# MST4, YSK1 = test system: MST4, YSK1
# AKT1 = AKT1 (Homo sapiens (Human), UniProt P31749); details: AKT1, read-out: percent inhibition
# RSKL1 domain1 = RSKL1 domain1 (Homo sapiens (Human), UniProt Q96S38); details: RSKL1 domain1, read-out: percent inhibition
# NuaK2 = NuaK2 (Homo sapiens (Human), UniProt Q9H093); details: NuaK2, read-out: percent inhibition
# Sequence of NuaK2 (Q9H093 whole entry): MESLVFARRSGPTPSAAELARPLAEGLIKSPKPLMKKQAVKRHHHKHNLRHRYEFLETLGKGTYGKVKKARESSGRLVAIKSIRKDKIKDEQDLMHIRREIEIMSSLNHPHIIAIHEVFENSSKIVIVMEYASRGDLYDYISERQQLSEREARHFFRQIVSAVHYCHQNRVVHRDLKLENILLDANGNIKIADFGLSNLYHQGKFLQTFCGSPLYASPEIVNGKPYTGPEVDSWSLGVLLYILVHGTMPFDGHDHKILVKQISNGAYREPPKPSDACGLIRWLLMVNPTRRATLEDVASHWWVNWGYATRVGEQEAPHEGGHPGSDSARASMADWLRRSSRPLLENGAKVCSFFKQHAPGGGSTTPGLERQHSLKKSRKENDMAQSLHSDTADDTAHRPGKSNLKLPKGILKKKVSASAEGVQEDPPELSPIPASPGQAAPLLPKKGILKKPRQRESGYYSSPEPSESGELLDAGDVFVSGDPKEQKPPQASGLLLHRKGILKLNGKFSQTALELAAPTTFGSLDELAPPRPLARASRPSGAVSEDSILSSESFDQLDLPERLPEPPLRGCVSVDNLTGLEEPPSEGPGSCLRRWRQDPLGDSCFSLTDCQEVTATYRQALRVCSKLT
# PIP5K3 = PIP5K3 (Homo sapiens (Human), UniProt Q9Y2I7); details: PIP5K3, read-out: percent inhibition
# Wnk1, Wnk2, Wnk3 = test system: Wnk1, Wnk2, Wnk3
# MAP3K4 = MAP3K4 (Homo sapiens (Human), UniProt Q9Y6R4); details: MAP3K4, read-out: percent inhibition
# GCK = GCK (Homo sapiens (Human), UniProt Q12851); details: GCK, read-out: percent inhibition
# Sequence of GCK (Q12851 whole entry): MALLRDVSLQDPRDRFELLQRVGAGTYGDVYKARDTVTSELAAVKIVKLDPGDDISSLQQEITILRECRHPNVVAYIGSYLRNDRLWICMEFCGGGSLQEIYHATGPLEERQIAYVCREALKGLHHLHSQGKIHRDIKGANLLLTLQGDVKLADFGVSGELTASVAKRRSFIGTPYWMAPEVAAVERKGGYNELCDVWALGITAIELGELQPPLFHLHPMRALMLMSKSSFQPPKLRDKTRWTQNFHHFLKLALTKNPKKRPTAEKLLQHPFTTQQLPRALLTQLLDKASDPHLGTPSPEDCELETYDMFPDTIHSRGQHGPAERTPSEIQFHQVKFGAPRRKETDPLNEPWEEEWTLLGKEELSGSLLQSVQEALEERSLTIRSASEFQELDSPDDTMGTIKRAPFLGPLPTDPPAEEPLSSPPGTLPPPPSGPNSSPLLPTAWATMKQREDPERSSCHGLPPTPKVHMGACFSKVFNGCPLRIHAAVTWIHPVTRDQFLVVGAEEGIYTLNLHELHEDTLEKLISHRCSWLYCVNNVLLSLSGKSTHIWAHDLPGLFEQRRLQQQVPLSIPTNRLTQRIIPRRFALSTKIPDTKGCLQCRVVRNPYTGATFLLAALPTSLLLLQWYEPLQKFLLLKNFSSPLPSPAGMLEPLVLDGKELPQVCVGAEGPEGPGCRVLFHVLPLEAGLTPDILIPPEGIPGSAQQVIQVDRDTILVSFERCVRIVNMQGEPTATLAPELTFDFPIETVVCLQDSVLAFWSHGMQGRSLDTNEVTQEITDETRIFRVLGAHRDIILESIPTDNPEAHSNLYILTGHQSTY
# CaMK1a = CaMK1a (Homo sapiens (Human), UniProt Q14012); details: CaMK1a, read-out: percent inhibition
# Sequence of CaMK1a (Q14012 whole entry): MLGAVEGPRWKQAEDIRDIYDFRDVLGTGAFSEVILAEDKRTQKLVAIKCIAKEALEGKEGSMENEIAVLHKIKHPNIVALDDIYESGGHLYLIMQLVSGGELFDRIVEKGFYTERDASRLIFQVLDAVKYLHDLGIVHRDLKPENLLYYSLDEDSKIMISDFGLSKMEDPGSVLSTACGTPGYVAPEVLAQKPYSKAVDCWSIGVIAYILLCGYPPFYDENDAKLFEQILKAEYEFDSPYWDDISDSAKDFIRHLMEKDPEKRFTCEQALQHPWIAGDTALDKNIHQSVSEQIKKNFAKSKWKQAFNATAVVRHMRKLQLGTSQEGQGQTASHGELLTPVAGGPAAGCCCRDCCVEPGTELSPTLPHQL
# TLK1 = TLK1 (Homo sapiens (Human), UniProt Q9UKI8); details: TLK1, read-out: percent inhibition
# OSR1 = OSR1 (Homo sapiens (Human), UniProt O95747); details: OSR1, read-out: percent inhibition
# MAP2K6 = MAP2K6 (Homo sapiens (Human), UniProt P52564); details: MAP2K6, read-out: percent inhibition
# Sequence of MAP2K6 (P52564 whole entry): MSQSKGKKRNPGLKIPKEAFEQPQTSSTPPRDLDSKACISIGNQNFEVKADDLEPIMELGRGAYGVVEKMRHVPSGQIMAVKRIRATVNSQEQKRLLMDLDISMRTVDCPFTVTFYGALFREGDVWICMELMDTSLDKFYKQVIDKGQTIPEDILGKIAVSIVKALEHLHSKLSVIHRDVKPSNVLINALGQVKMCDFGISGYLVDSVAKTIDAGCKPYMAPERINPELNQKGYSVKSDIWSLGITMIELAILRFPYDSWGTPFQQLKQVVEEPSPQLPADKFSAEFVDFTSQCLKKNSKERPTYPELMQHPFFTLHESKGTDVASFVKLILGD
# FYN, SRC, YES = test system: FYN, SRC, YES
# eEF2K = eEF2K (Homo sapiens (Human), UniProt O00418); details: eEF2K, read-out: percent inhibition
# Sequence of eEF2K (O00418 whole entry): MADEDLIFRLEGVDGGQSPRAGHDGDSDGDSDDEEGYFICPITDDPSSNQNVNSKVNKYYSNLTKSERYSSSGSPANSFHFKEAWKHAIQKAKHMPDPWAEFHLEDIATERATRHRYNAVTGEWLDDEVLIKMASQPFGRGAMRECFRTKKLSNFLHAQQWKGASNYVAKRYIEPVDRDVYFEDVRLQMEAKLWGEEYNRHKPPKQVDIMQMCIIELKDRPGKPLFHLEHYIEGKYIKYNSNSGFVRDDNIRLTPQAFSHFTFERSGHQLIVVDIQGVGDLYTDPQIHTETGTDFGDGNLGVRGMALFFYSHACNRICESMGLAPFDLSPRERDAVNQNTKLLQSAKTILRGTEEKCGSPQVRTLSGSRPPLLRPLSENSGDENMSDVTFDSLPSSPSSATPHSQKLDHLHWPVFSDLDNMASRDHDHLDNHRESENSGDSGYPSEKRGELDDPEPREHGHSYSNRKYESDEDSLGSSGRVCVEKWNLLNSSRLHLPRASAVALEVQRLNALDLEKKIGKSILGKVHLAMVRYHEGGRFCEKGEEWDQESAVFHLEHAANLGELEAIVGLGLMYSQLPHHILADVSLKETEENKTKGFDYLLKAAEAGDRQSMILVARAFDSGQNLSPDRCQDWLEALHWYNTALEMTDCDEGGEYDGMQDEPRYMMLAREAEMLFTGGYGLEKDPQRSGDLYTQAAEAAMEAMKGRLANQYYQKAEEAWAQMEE
# AMPKa1, AMPKa2 = test system: AMPKa1, AMPKa2
# BRAF = BRAF (Homo sapiens (Human), UniProt P15056); details: BRAF, read-out: percent inhibition
# AMPKa1 = AMPKa1 (Homo sapiens (Human), UniProt Q13131); details: AMPKa1, read-out: percent inhibition
# RIPK3 = RIPK3 (Homo sapiens (Human), UniProt Q9Y572); details: RIPK3, read-out: percent inhibition
# PKR = PKR (Homo sapiens (Human), UniProt P19525); details: PKR, read-out: percent inhibition
# KSR1, KSR2 = test system: KSR1, KSR2
# PCTAIRE2, PCTAIRE3 = test system: PCTAIRE2, PCTAIRE3
# LATS2 = LATS2 (Homo sapiens (Human), UniProt Q9NRM7); details: LATS2, read-out: percent inhibition
# ABL, ARG = test system: ABL, ARG
# PIP4K2C = PIP4K2C (Homo sapiens (Human), UniProt Q8TBX8); details: read-out: percent inhibition
# Sequence of PIP4K2C (Q8TBX8 whole entry, the tested form may be a part): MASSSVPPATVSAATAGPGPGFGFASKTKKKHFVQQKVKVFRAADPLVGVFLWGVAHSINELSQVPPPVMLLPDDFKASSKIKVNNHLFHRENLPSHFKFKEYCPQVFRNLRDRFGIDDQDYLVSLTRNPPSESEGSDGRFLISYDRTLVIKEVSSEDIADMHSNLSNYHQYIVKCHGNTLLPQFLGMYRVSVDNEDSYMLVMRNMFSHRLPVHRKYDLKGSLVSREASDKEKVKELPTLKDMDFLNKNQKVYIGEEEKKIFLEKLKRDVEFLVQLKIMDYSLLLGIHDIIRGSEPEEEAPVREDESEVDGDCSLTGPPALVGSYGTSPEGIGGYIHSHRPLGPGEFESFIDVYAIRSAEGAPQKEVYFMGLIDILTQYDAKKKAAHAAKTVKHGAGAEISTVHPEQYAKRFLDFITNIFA
# JAK2 domain2 = JAK2 domain2 (Homo sapiens (Human), UniProt O60674); details: JAK2 domain2, read-out: percent inhibition
# TLK2 = TLK2 (Homo sapiens (Human), UniProt Q86UE8); details: TLK2, read-out: percent inhibition
# ZAP70 = ZAP70 (Homo sapiens (Human), UniProt P43403); details: ZAP70, read-out: percent inhibition
# p38a = p38a (Homo sapiens (Human), UniProt Q16539); details: p38a, read-out: percent inhibition
# Sequence of p38a (Q16539 whole entry): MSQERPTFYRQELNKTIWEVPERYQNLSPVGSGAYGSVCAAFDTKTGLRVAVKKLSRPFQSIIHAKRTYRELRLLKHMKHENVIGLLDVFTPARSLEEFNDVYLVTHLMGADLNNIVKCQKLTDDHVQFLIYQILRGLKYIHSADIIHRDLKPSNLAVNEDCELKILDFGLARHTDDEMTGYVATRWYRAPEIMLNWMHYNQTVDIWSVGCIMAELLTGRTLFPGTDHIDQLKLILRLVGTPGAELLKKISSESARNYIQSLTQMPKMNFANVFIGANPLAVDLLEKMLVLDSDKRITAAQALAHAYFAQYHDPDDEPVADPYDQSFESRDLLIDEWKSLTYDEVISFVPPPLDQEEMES
# FYN = FYN (Homo sapiens (Human), UniProt P06241); details: FYN, read-out: percent inhibition
# Sequence of FYN (P06241 whole entry): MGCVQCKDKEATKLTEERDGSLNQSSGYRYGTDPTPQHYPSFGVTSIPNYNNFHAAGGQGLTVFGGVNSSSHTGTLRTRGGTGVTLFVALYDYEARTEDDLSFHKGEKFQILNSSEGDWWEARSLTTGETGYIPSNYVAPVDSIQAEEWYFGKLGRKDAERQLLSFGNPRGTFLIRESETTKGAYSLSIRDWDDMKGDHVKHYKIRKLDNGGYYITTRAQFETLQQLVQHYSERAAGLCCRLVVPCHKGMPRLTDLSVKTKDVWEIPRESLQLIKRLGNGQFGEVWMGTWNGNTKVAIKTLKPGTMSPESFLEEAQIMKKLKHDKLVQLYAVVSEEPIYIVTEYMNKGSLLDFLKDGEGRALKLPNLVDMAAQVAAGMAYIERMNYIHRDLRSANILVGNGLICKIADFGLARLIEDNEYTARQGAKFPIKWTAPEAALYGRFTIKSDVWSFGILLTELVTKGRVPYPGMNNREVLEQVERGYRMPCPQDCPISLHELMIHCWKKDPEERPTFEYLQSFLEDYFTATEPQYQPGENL
# MLKL = MLKL (Homo sapiens (Human), UniProt Q8NB16); details: MLKL, read-out: percent inhibition
# IKKe, TBK1 = test system: IKKe, TBK1
# IKKe = IKKe (Homo sapiens (Human), UniProt Q14164); details: IKKe, read-out: percent inhibition
# Sequence of IKKe (Q14164 whole entry): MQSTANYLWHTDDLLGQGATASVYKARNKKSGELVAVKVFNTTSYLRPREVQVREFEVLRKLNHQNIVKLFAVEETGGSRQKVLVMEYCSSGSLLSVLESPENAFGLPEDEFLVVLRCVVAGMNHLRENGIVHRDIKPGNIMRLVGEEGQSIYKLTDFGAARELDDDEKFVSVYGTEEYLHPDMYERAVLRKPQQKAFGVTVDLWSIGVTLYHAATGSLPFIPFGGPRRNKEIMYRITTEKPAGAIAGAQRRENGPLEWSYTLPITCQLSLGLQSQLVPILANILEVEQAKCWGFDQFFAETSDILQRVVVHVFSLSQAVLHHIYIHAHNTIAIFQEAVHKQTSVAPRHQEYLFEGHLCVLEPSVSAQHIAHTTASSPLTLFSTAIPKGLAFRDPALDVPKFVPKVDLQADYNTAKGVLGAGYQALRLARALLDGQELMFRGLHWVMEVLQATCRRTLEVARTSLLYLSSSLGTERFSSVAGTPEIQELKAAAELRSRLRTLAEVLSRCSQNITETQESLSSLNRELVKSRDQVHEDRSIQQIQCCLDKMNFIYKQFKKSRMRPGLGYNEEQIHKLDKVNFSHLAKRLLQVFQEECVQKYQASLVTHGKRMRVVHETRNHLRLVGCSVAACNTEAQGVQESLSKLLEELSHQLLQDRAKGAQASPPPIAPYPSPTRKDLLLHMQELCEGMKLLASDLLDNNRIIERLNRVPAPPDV
# TAO2 = TAO2 (Homo sapiens (Human), UniProt Q9UL54); details: TAO2, read-out: percent inhibition
compound,measurement,setting,value
"Cn1cc(-c2c[nH]c3ncnc(N4CCOCC4)c23)cc1C#N [Example 217, 1-methyl-4-[4-(morpholin-4-yl)-7H-pyrrolo[2,3-d]pyrimidin-5-yl]-1H-pyrrole-2-carbonitrile]",percent inhibition,PITSLRE; 0.1 μM,−6.7%
same,percent inhibition,PITSLRE; 1 μM,6.6%
same,inhibition at 0.1 µM,PIK3CD; 0.1 μM,-0.4%
same,inhibition at 1 µM,PIK3CD; 1 μM,10%
same,inhibition at 0.1 µM,TBK1; 0.1 μM,1.9%
same,inhibition at 1 µM,TBK1; 1 μM,0.1%
same,percent inhibition,"MST4, YSK1; 0.1 μM",5.3%
same,percent inhibition,"MST4, YSK1; 1 μM",9.9%
same,inhibition at 0.1 µM,AKT1; 0.1 μM,5.5%
same,inhibition at 1 µM,AKT1; 1 μM,-3.6%
same,inhibition at 0.1 µM,RSKL1 domain1; 0.1 μM,-15.9%
same,inhibition at 1 µM,RSKL1 domain1; 1 μM,-30.6%
same,inhibition at 0.1 µM,NuaK2; 0.1 μM,1.3%
same,inhibition at 1 µM,NuaK2; 1 μM,24.9%
same,inhibition at 0.1 µM,PIP5K3; 0.1 μM,16%
same,inhibition at 1 µM,PIP5K3; 1 μM,2.5%
same,percent inhibition,"Wnk1, Wnk2, Wnk3; 0.1 μM",−6.3%
same,percent inhibition,"Wnk1, Wnk2, Wnk3; 1 μM",−21.1%
same,inhibition at 0.1 µM,MAP3K4; 0.1 μM,-35.5%
same,inhibition at 1 µM,MAP3K4; 1 μM,-27.4%
same,inhibition at 0.1 µM,GCK; 0.1 μM,-5.2%
same,inhibition at 1 µM,GCK; 1 μM,27.2%
same,inhibition at 0.1 µM,CaMK1a; 0.1 μM,-5.4%
same,inhibition at 1 µM,CaMK1a; 1 μM,-7.1%
same,inhibition at 0.1 µM,TLK1; 0.1 μM,7.6%
same,inhibition at 1 µM,TLK1; 1 μM,16.7%
same,inhibition at 0.1 µM,OSR1; 0.1 μM,5.2%
same,inhibition at 1 µM,OSR1; 1 μM,-12.3%
same,inhibition at 0.1 µM,MAP2K6; 0.1 μM,11.3%
same,inhibition at 1 µM,MAP2K6; 1 μM,-0.1%
same,percent inhibition,"FYN, SRC, YES; 0.1 μM",18.4%
same,percent inhibition,"FYN, SRC, YES; 1 μM",−1.4%
same,inhibition at 0.1 µM,eEF2K; 0.1 μM,-12.1%
same,inhibition at 1 µM,eEF2K; 1 μM,2.2%
same,percent inhibition,"AMPKa1, AMPKa2; 0.1 μM",5.7%
same,percent inhibition,"AMPKa1, AMPKa2; 1 μM",16.5%
same,inhibition at 0.1 µM,BRAF; 0.1 μM,-8.4%
same,inhibition at 1 µM,BRAF; 1 μM,-10.4%
same,inhibition at 0.1 µM,AMPKa1; 0.1 μM,27.2%
same,inhibition at 1 µM,AMPKa1; 1 μM,48.8%
same,inhibition at 0.1 µM,RIPK3; 0.1 μM,-7.3%
same,inhibition at 1 µM,RIPK3; 1 μM,-9.1%
same,inhibition at 0.1 µM,PKR; 0.1 μM,-7.7%
same,inhibition at 1 µM,PKR; 1 μM,1.8%
same,percent inhibition,"KSR1, KSR2; 0.1 μM",−6.2%
same,percent inhibition,"KSR1, KSR2; 1 μM",−6.8%
same,percent inhibition,"PCTAIRE2, PCTAIRE3; 0.1 μM",−2.6%
same,percent inhibition,"PCTAIRE2, PCTAIRE3; 1 μM",15.1%
same,inhibition at 0.1 µM,LATS2; 0.1 μM,5.8%
same,inhibition at 1 µM,LATS2; 1 μM,-23.7%
same,percent inhibition,"ABL, ARG; 0.1 μM",4.6%
same,percent inhibition,"ABL, ARG; 1 μM",−1.6%
same,inhibition at 0.1 µM,PIP4K2C; PIP4K2C (first line of two),6.2%
same,inhibition at 1 µM,PIP4K2C; PIP4K2C (first line of two),-11.9%
same,inhibition at 0.1 µM,PIP4K2C; PIP4K2C (second line of two),-4.7%
same,inhibition at 1 µM,PIP4K2C; PIP4K2C (second line of two),4%
same,inhibition at 0.1 µM,JAK2 domain2; 0.1 μM,4.8%
same,inhibition at 1 µM,JAK2 domain2; 1 μM,-6.4%
same,inhibition at 0.1 µM,TLK2; 0.1 μM,11.1%
same,inhibition at 1 µM,TLK2; 1 μM,16%
same,inhibition at 0.1 µM,ZAP70; 0.1 μM,-25%
same,inhibition at 1 µM,ZAP70; 1 μM,-6%
same,inhibition at 0.1 µM,p38a; 0.1 μM,-1.1%
same,inhibition at 1 µM,p38a; 1 μM,-4.6%
same,inhibition at 0.1 µM,FYN; 0.1 μM,-2.1%
same,inhibition at 1 µM,FYN; 1 μM,-6.8%
same,inhibition at 0.1 µM,MLKL; 0.1 μM,2.5%
same,inhibition at 1 µM,MLKL; 1 μM,-3.3%
same,percent inhibition,"IKKe, TBK1; 0.1 μM",2.3%
same,percent inhibition,"IKKe, TBK1; 1 μM",13.3%
same,inhibition at 0.1 µM,IKKe; 0.1 μM,-3%
same,inhibition at 1 µM,IKKe; 1 μM,20.4%
same,inhibition at 0.1 µM,TAO2; 0.1 μM,-20.2%
same,inhibition at 1 µM,TAO2; 1 μM,-18.4%

# — patent publication US9156845B2, “4-(substituted amino)-7H-pyrrolo[2,3-d] pyrimidines as LRRK2 inhibitors” (Pfizer Inc., priority 2012, dated 2015)
